The target in assay [1] is T1, Rat Striatal Nicotinic Acetylcholine Receptors ([^3H]nicotine binding sites) (Rattus norvegicus, UniProt P09483+P12390).
T1 construct: Striata from two rats were dissected, pooled, and homogenized; from tissue; host or cells: rat striatum membranes
In words: biochemical. Conditions: rat striatal membranes, 3 nM [^3H]-nicotine; read-out: Ki, specific binding of [^3H]-nicotine. On the procedure: Striata from two rats were dissected, pooled, and homogenized with a Tekmar polytron in 10 volumes of ice-cold modified Krebs-HEPES buffer (20 mM HEPES, 118 mM NaCl, 4.8 mM KCl, 2.5 mM CaCl2, 1.2 mM MgSO4, adjusted to pH 7.5). The homogenates were incubated at 37° C. for five minutes and centrifuged at 15,000 g for 20 minutes. The pellet was resuspended in ten volumes of ice-cold MilliQ water, incubated for five minutes at 37° C., and centrifuged at 15,000 g for 20 minutes The second pellet was then resuspended in ten volumes of fresh ice-cold 10% Krebs-HEPES buffer, incubated at 37° C., and centrifuged at 15,000 g for 20 minutes. The latter sequence of resuspension, incubation, and centrifugation was repeated. The pellet was frozen under fresh 10% Krebs-HEPES buffer and stored at −40° C. until assay. Upon assay, the pellet was resuspended in the Krebs-HEPES buffer, incubated at 37° C. for five minutes, and centrifuged at 15,000 g for 20 minutes. The final pellet was resuspended in 3.6 ml ice-cold MilliQ water which provided for approximately 200 μg protein per 100 μl aliquot. Competition assays were performed in duplicate in a final volume of 200 μl Krebs-HEPES buffer containing […] Tris buffer (pH 7.5 at 4° C.). […] After a 90 minute incubation at 4° C., reactions were terminated by dilution of the samples with 3 ml of ice-cold Krebs-HEPES buffer followed immediately by filtration through Whatman GF/B glass fiber filters (presoaked in 0.5% polyethyleneimine) using a Brandel Cell Harvester. Filters were rinsed three times with 3 ml of ice-cold Krebs-HEPES buffer, transferred to scintillation vials, and 5 ml scintillation cocktail (Research Products International Corp., Mt. Prospect, Ill.) added. […] Binding parameters were determined using the weighted, least squares non-linear regression.

In assay [2] the test system is nAChR mediating nicotine-evoked [^3H]DA release (α3β2* receptor subtype). It counts as cell-based, rat. The note with it: rat striatal slices, nicotine 10 μM; read-out: IC50, S-(−)-nicotine-evoked [^3H]DA release. On the procedure:
Slices were rinsed with 15 mL of fresh buffer and incubated for an additional 30 minutes in fresh buffer containing 0.1 μM [^3H]DA (6 slices/3 ml). Subsequently, slices were rinsed with 15 ml of fresh buffer and transferred to a glass superfusion chamber.
Radioactivity in the superfusate and tissue samples was determined by liquid scintillation spectroscopy. […] Basal [^3H]outflow was calculated from the average of the tritium collected in the two five minute samples just before addition of the bis-alkyl pyridino analog. […] [^3H]Overflow was calculated by subtracting the [^3H]outflow during an equivalent period of prestimulation from the values in samples collected during and after drug exposure. Inasmuch as the radiolabelled compounds were not separated and identified, the tritium collected in superfusate is referred to as either [^3H]outflow or [^3H]overflow, rather than as [^3H]DA.

Another assay addresses [^3H]DA Uptake. In words: [^3H]DA uptake inhibition (Table 11). It counts as biochemical.
The next assay concerns the target α4β2* nAChRs (Rattus norvegicus, UniProt P09483+P12390).
For assay [3], the system named is nAChR subtypes mediating nicotine-evoked [^3H]-dopamine overflow.
Description: [^3H]-Dopamine overflow from superfused striatal slices. […] Striatal coronal slices (500 μm, 4-6 mg) were obtained and incubated for 30 minutes in Krebs' buffer (in mM: 118 NaCl, 4.7 KCl, 1.2 MgCl2, 1 NaH2PO4, 1.3 CaCl2, 11.1 glucose, 25 NaHCO3, 0.11 L-ascorbic acid and 0.004 disodium EDTA, pH 7.4, saturated with 95% O2/5% CO2) in a metabolic shaker at 34° C. Slices were incubated with 0.1 μM (final concentration) of [^3H]-dopamine during the latter 30 minutes of the 60-minute incubation period. Each slice was transferred to a glass superfusion chamber maintained at 34° C. and superfused (1 ml/min) with Krebs' buffer containing nomifensine (10 μM) and pargyline (10 μM) to inhibit [^3H]-dopamine reuptake after release into the extracellular space, ensuring that [^3H]-overflow primarily represented [^3H]-dopamine. Sample collection (5-minute; 5 mL) began after 60 minutes of superfusion. […] At the end of the experiment, each slice was solubilized, and the [^3H]-content of the tissue determined. Release during each minute was normalized for total tissue [^3H]-content. Analog-induced intrinsic activity and inhibitory activity were determined using slices from the same rat (repeated-measures design).
The amount of [^3H] in each sample was calculated by dividing the total [^3H] collected in each sample by the total in the tissue at the time of sample collection (defined as fractional release). […] Data were analyzed by weighted, least squares regression analysis of the sigmoidal concentration-effect curves to obtain EC50 and IC50 values.
Striatal slices (500 μm, 4-6 mg) were incubated for 30 minutes in Krebs' buffer (in mM: 118 NaCl, 4.7 KCl, 1.2 MgCl2, 1 NaH2PO4, 1.3 CaCl2, 11.1 glucose, 25 NaHCO3, 0.11 L-ascorbic acid and 0.004 disodium EDTA, pH 7.4, saturated with 95% O2/5% CO2) in a metabolic shaker at 34° C. Slices were incubated with 0.1 μM (final concentration) [^3H]DA during the latter 30 minutes of the 60-minute incubation period. Each slice was transferred to a glass superfusion chamber maintained at 34° C. and superfused (1 ml/min) with Krebs' buffer containing nomifensine (10 μM) and pargyline (10 μM) to inhibit [^3H]DA reuptake and metabolism, respectively, after release into the extracellular space, ensuring that [^3H]overflow primarily represents [^3H]DA. Sample collection (5-minute; 5 ml) began after 60 minutes of superfusion. […] Thus, the ability of these analogs to elicit intrinsic activity (evoke [^3H]DA overflow) was determined. At the end of the experiment, each slice was solubilized and [^3H]content of the tissue determined. Release during each minute was normalized for total [^3H]content of the slice. Analog-induced intrinsic activity and inhibitory activity were determined using slices from the same rat (repeated-measures design).
Fractional release was calculated by dividing the total tritium collected in each sample by the total tritium in the tissue at the time of sample collection. […] Typically, data were analyzed by weighted, least squares regression analysis of sigmoidal concentration-effect curves to obtain EC50 and IC50 values.
Assay [4] concerns the target T2, α7* nAChRs (Rattus norvegicus, UniProt Q05941). Conditions: read-out: [^3H]MLA Binding Ki.
Description: (§1) Whole brain, excluding cortex and cerebellum, was homogenized in 20 ml of ice-cold buffer, containing (in mM): 2 HEPES, 11.8 NaCl, 0.48 KCl, 0.25 CaCl2 and 0.12 MgSO4, pH 7.5. Homogenate was centrifuged (25,000 g, 15 minutes, 4° C.). Pellets were resuspended in 20 ml of buffer and incubated at 37° C., for ten minutes, cooled to 4° C. and centrifuged (25,000 g, 15 minutes, 4° C.). Pellets were resuspended and centrifuged using the same conditions. Final pellets were stored in assay buffer, containing (in mM): 20 HEPES, 118 NaCl, 4.8 KCl, 2.5 CaCl2, and 1.2 MgSO4) pH 7.5 at −70° C. Upon use, final pellets were resuspended in ˜20 ml assay buffer. […] Control was in the absence of analog. […] Incubations proceeded for 60 minutes at room temperature using 96-well plates and were terminated by harvesting on Unifilter-96 GF/B filter plates presoaked in 0.5% polyethylenimine, using a Packard FilterMate harvester.
(§2) After washing five times with 350 μl ice-cold assay buffer, filter plates were dried (60 minutes, 49° C.), bottom-sealed, and filled with Packard's MicroScint 20 cocktail (40 μl/well). After 60 minutes, filter plates were top-sealed, and radioactivity determined using a Packard TopCount. Protein concentrations were determined using bovine serum albumin as the standard.
(§3) Whole brain was homogenized in 20 ml of ice-cold buffer (in mM: 2 HEPES, 11.8 NaCl, 0.48 KCl, 0.25 CaCl2, and 0.12 MgSO4, pH 7.5). Homogenates were centrifuged (25,000 g, 15 minutes, 4° C.). Pellets were resuspended in 20 ml of buffer and incubated at 37° C., for 10 minutes, cooled to 4° C. and centrifuged (25,000 g, 15 minutes, 4° C.). Pellets were resuspended and centrifuged again using the same conditions. Final pellets were stored at −70° C. in assay buffer (in mM: 20 HEPES, 118 NaCl, 4.8 KCl, 2.5 CaCl2, and 1.2 MgSO4, pH 7.5). Upon use, final pellets were resuspended in ˜20 ml assay buffer. […] Control was in the absence of analog. […] Incubation proceeded for 60 minutes at room temperature using 96-well plates and was terminated by harvesting on Unifilter-96 GF/B filter plates, presoaked in 0.5% polyethylenimine, using a Packard FiterMate harvester. After washing 5× with 350 μl ice-cold assay buffer, filter plates were dried (60 minutes, 49° C.), bottom-sealed, and filled with Packard's MicroScint 20 cocktail (40 μl/well). After 60 minutes, filter plates were top-sealed, and radioactivity determined. Protein concentration was determined using BSA as the standard.
Assay [5] has as its target T3, α7-type neuronal nicotinic acetylcholine receptors (Rattus norvegicus, UniProt Q05941).
T3 construct: Rat brain was dissected into the whole brain tissue without cortex, striatum and cerebellum; from tissue; host or cells: rat brain (without cortex, striatum, cerebellum) membranes
In words: biochemical. Conditions: rat brain membranes, 2.5 nM [^3H]-MLA; read-out: Ki, [^3H]MLA binding.

For assay [6], the target named is T3, α7-type neuronal nicotinic acetylcholine receptors. Format: binding. As for the experimental part: Rat brain was dissected into the whole brain tissue without cortex, striatum and cerebellum and was frozen in liquid nitrogen and stored at −70° C. until use.
The brain tissue was homogenized with a Tekmar Polytron (setting 40) in 20 volumes of ice-cold hypotonic buffer (2 mM HEPES, 14.4 mM NaCl, 0.15 mM KCl, 0.2 mM CaCl2 and 0.1 mM MgSO4, pH=7.5). The homogenate was incubated at 37° C. for ten minutes and centrifuged at 25,000×g for 15 minutes at […] The pellet was washed three times more by resuspension in the 20 volumes of the same buffer and centrifugation at the above parameters. The final pellet was stored at −20° C. under 4.6 ml of the incubation buffer and was suspended just before the incubation with radioligand.
[^3H]MLA (25.4 Ci/mmol) was purchased from Tocris Cookson Ltd., Bristol, U.K. Binding was performed in duplicate, in a final volume of 250 μl of the incubation medium, containing 20 mM HEPES, 144 mM NaCl, 1.5 mM KCl, 2 mM CaCl2, 1 mM MgSO4 and 0.05% BSA, pH=7.5. Reaction was initiated by the addition of 100 μl of membrane suspension to the samples containing a desired concentration of test compounds and […] [^3H] MLA (final concentration) and incubated for 2 hours at room temperature. […] The binding reaction was terminated by dilution of samples with 3 ml of ice-cold incubation buffer followed by immediate filtration through presoaked in 0.5% polyethylenimine glass fiber filters (S&S, grade #32) using a Brandel harvester system. Filters were rinsed three times with 3 ml of ice-cold buffer, transferred to scintillation-vials and 4 ml of scintillation cocktail was added. Protein was measured using the Bradford dye-binding procedure with bovine serum albumin as the standard.

Assay [7] has as its system nAChR subtypes mediating nicotine-evoked DA release. Kind of assay: Analog-evoked [^3H]DA overflow (intrinsic activity) from superfused striatal slices. Format: cell-based, rat.
Assay [8] concerns the target blood-brain barrier choline transporter. It counts as in vivo, rat. Conditions: read-out: apparent Ki, inhibition of [^3H]-choline uptake into brain. On the procedure: Blood-brain barrier choline transporter affinity assays. Quaternary ammonium analogs were evaluated for their ability to inhibit [^3H]-choline uptake into brain providing an indication of the ability of these analogs to interact with the choline transporter. These assays were conducted using the in situ rat brain perfusion method of Takasato, et al., Am. J. Physiol. 1984, 247, 484, as modified by Allen and Smith, J. Neurochem., 2001, 76, 1032. […] Ki values were compared by ANOVA followed by Bonferoni's multiple comparisons test to determine if an analog inhibits [^3H]-choline uptake.
Analog affinity for, and transport by, the blood-brain barrier choline transporter.

Assay [9] has as its target T2, α7* nAChRs. Kind of assay: biochemical.
Description: as §1, §2, §3
The mark [10] stands for this setting: read-out: [^3H]Nicotine Binding Ki, Table 7, mean (standard error).
The mark [11] stands for this setting: read-out: [^3H]Nicotine Binding Ki, Table 11.
Where [12] appears, read: read-out: Nicotine-evoked [^3H]DA Overflow IC50, Table 7, mean (standard error).
Setting [13] is: read-out: Nicotine-evoked [^3H]DA Overflow IC50, Table 11.
[14] abbreviates: read-out: IC50, inhibition of nicotine-evoked [^3H]dopamine release/overflow.

Where two headings read alike, the source gives them in different places. Where only a bound is given, the exact number is not on record here.

T3 sequence (Q05941 23-502): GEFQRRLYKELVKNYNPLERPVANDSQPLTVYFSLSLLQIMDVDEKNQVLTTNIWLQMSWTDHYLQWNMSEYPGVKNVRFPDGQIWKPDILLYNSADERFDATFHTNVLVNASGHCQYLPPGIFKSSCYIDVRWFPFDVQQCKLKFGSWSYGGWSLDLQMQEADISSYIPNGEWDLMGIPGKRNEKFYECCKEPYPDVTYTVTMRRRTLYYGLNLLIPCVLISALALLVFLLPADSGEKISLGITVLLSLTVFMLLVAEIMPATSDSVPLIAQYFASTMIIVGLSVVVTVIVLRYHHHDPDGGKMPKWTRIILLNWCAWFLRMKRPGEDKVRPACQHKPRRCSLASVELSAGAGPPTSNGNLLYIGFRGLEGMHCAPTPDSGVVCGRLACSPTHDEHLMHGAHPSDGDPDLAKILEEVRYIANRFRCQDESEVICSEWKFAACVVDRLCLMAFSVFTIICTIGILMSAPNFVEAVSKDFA
T2 sequence (Q05941 23-502): as above
Sequence of α4β2* nAChRs (P09483 31-630): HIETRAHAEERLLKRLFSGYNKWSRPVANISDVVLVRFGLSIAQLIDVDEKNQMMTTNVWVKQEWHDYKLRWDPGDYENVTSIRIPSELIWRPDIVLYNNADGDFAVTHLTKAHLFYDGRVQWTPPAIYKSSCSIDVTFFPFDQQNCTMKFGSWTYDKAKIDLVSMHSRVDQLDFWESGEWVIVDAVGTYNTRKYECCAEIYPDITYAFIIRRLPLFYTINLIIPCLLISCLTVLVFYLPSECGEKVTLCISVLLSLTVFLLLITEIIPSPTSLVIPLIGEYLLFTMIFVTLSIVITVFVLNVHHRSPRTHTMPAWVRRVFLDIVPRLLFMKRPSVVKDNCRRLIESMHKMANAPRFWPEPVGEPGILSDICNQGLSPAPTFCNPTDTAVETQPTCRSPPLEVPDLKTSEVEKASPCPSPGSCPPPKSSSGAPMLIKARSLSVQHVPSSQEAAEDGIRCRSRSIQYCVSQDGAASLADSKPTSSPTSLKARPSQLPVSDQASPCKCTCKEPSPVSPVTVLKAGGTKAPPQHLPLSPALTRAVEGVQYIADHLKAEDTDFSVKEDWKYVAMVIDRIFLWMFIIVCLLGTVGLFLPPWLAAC
Sequence of α4β2* nAChRs (P12390 25-500): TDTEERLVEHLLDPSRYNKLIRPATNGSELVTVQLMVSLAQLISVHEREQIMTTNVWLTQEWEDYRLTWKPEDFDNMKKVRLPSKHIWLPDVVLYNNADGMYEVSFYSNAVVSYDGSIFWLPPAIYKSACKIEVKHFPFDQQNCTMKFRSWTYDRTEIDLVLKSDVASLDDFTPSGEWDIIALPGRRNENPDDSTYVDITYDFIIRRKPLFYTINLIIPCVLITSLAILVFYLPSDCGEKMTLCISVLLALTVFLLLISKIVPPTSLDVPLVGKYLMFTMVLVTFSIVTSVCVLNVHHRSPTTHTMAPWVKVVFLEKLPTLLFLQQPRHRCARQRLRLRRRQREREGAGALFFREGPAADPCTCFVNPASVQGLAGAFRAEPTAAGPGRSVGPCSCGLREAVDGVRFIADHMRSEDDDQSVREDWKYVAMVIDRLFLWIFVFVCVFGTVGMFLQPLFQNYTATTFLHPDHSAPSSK
T1 sequence (P09483 31-630): as the sequence (P09483 31-630) above
T1 sequence (P12390 25-500): as the sequence (P12390 25-500) above
Description for α4β2* nAChRs: as §1, §2, §3

As to `CN1CCC[C@H]1c1ccc[n+](CCCCCCCCCCCC[n+]2cccc([C@@H]3CCCN3C)c2)c1` [bNDDB, N,N′-Dodecane-1,12-diyl-bis-nicotinium Dibromide], the Ki in assay [1] turned out to be 1430 nM; in assay [^3H]DA Uptake it was 43200 ± 14900 nM; on α4β2* nAChRs (setting [10]), 1950 nM; at α4β2* nAChRs (setting [11]), 1950 ± 190 nM. Moreover, the values for the IC50 in assay [2], in assay [3] (setting [12]) and in assay [3] (setting [13]) were 4370 nM, 170 nM and 40 ± 20 nM, respectively.
Consider `c1ccc2c(c1)ccc[n+]2CCCCCCCCCCCC[n+]1cccc2ccccc21` [bQDDB, N,N′-Dodecane-1,12-diyl-bis-quinolinium Dibromide], for which the IC50 amounted to 20 nM in assay [2] and 21 ± 10 nM in assay [3] (setting [13]). The Ki in assay [^3H]DA Uptake was 3860 ± 220 nM; on α7* nAChRs [4] (Table 11), 1610 ± 210 nM; in [5], 1570 nM.
As to “N,N′-Dodecane-1,12-diyl-bis-picolinium Dibromide [bPiDDB]”, the Ki in [1] is 33000 nM; in assay [6] (rat brain membranes, […] [^3H]-MLA, read-out: Ki, [^3H]MLA binding), > 100000 nM; in assay [^3H]DA Uptake it was > 100000 nM; at α7* nAChRs [4] (Table 11) it was > 100000 nM; on α4β2* nAChRs (read-out: [^3H]Nicotine Binding Ki, Table 10, mean (standard error)), 49000 nM; on α4β2* nAChRs (setting [11]), 48600 ± 17200 nM. The IC50 in assay [2] was 5 nM; in assay [3] (setting [14]), 5 nM; in [3] (read-out: Nicotine-evoked [^3H]DA Overflow IC50, Table 10, mean (standard error)) it was 5 nM; in assay [3] (setting [13]), 5 ± 3 nM. The “affinity for nAChR subtype mediating nicotine-evoked [^3H]DA overflow compared to α4β2* and α7* nAChRs” value in [3] is 4-5 orders of magnitude. Besides, the “maximal inhibition (Imax) of nicotine-evoked [^3H]DA overflow” value in [3] stood at 60%. Besides, the “potency relative to DHβE in inhibiting nicotine-evoked [^3H]DA overflow” value in [3] was “approximately 320 fold”.
For `CCCCCCCCCCCC[n+]1cccc(C)c1.[I-]` [NDDPiI], the “concentration evoking [^3H]DA overflow (intrinsic activity)” value in assay [7] was ≥ 1.0 µM. Moreover, the “maximal inhibition (Imax) of nicotine-evoked [^3H]DA overflow” value in [3] was determined as 63%. For the same compound, the IC50 in assay [3] (setting [14]) was 30 nM.
As for `c1ccc2c[n+](CCCCCCCCCCCC[n+]3ccc4ccccc4c3)ccc2c1` [bIQDDB, N,N′-Dodecane-1,12-diyl-bis-isoquinolinium Dibromide], the Ki was > 100000 nM in assay [1]; 270 ± 70 nM in [^3H]DA Uptake; 2210 ± 250 nM on α7* nAChRs [4] (Table 11); 12300 nM in assay [5]; 6100 ± 730 nM at α4β2* nAChRs (setting [11]). Further, the IC50 in assay [3] (setting [13]) worked out at 7 ± 3 nM.
Take `[Br-].[Br-].c1cc[n+](CCCCCCCCCCCC[n+]2ccccc2)cc1` [bPDDB, N,N′-Dodecane-1,12-diyl-bis-pyridinium Dibromide]: the Ki in assay [1] was 9140 nM; in [^3H]DA Uptake, > 100000 nM; on α7* nAChRs [4] (Table 7, mean (standard error)) it was 33000 nM; at α7* nAChRs [4] (Table 11), 33000 ± 4600 nM; in assay [5], 35600 nM; on α4β2* nAChRs (setting [10]), 9150 nM. Also, at α4β2* nAChRs (setting [11]), the Ki worked out at 9150 ± 170 nM. For the same compound, the “binding affinity in the [^3H]MLA assay” value in [6] is listed as “moderate binding affinity”. Moreover, the IC50 was 1000 nM in assay [2], 1000 nM in assay [3] (setting [12]) and 1000 ± 380 nM in assay [3] (setting [13]).
As for `CCCCCCCCCC[n+]1cccc(C2CCCN2C)c1` (stereo not drawn) [NDNI], the Ki is 110 nM in assay [1]; 27000 nM in [8]; > 100000 nM in assay [5]; > 100000 nM on α7* nAChRs [9]; 90 nM at α4β2* nAChRs ([^3H]Nicotine Binding Ki, Table 4, mean (95% confidence interval)); ~90 nM on α4β2* nAChRs (affinity for [^3H]-nicotine binding sites). Besides, the IC50 in assay [2] was > 100000 nM. Also, the “mode of interaction with the high affinity [^3H]-nicotine binding site (Scatchard analyses)” value at α4β2* nAChRs (no change in Bmax) was “competitive manner”. Besides, the “inhibitory activity at the nAChR subtype mediating nicotine-evoked dopamine release” value in assay [3] was “does not exhibit inhibitory activity”.

Source of the values: patent US20080287490A1, “Bis-pyridino containing compounds for the use in the treatment of CNS pathologies” (UNIVERSITY OF KENTUCKY RESEARCH FOUNDATION, priority 2005, published 2008).
